According to patent US6372791B1, “Method of promoting skin cell metabolism” (Johnson & Johnson Consumer Companies, Inc., priority 2000, dated 2002):

Test system: primary normal human dermal fibroblasts (NHDF)
Experiment: Energy production (metabolic activity) by alamarBlue REDOX indicator fluorescence
Assay type: cell-based
Details: NHDF in DMEM prepared with Evian mineral water; 10 mM of each agent; 3-hour incubation, then alamarBlue 1 hour; fluorescence ex 530 nm/em 590 nm; n=8
Method: The effects of L-carnitine and sodium pyruvate, in mineral water, on energy production were evaluated in primary normal human dermal fibroblasts (adult). Energy production in the cell is assessed using the REDOX sensitive indicator alamarBlue™ (Alamar Biosciences, Sacramento, Calif.). The native, oxidized form of alamarBlue™ is taken up readily by cells and reduced intracellularly by the mitochondrial electron transport chain, resulting in a shift in its absorbance and fluorescence. Normal human dermal fibroblasts (NHDF), obtained from Clonetics (Biowhittaker Inc., Walkersville, Md.), were cultured in Clonetics FGM2 medium and grown to confluence in 96-well plates (Costar, Cambridge, Mass.). Culture medium was then replaced with DMEM (Life Technologies, Rockville, Md.) prepared with Evian® mineral water. After 72 hours cells were treated with 10 mM L-carnitine (Biosint USA, Larchmont, N.Y.), 10 mM sodium pyruvate (American International Chemical Inc., Natick, Mass.) or 10 mM L-carnitine in combination with 10 mM sodium pyruvate. At the end of a 3-hour incubation period, alamarBlue™ was added to each well and the plates returned to the incubator. After 1 hour the fluorescence was measured using a CytoFluor® Fluorescence Plate Reader (PerSeptive Biosystems, Framingham, Mass.) set with the following filter-combination: excitation at 530 nm and emission at 590 nm.

Compound | increase in metabolic activity
C[N+](C)(C)C[C@H](O)CC(=O)[O-] [carntine, L-carnitine] | 6.05%
CC(=O)C(=O)[O-].[Na+] [sodium pyruvate] | 2.16%
